{"source": "patent US20250213547A1", "about": "“METHODS OF TREATING NEUROLOGICAL DISEASES” (priority 2022, published 2025)", "key": {"[1]": {"assay": "clinical", "format": "in vivo", "conditions": "human; for Cmax: mean", "source_text": "The first-in-human clinical trial administered a single-rising dose and included 48 healthy men and women aged 19-55 with a body mass index between 18 kg/m2 and 30 kg/m2. […] Examples 2-5 herein further describes the trial protocol and the results, including data on the bioavailability of solution versus tablet (example 3), fed versus fasting patients (example 4), and PD data (example 5). The data obtained from this trial informed on the safe dosage range for future trials, and was included in the first-step of the modeling analysis described in example 12.\nThe study enrolled 48 subjects in the single rising dose study. Subjects were sorted into six cohorts and randomly assigned to treatment or placebo groups.\nA prior study of soticlestat dosing in dogs guided the safety margin of minimal and maximal single dose selection for human subjects. An initial dosage of 10 mg provided a 44-fold safety margin relative to the maximum safe dosage in dogs. […] Each dose trial contained two placebo subjects. Ascending doses were tested in 2 sentinel subjects at a time to determine safety and tolerability before including the full cohort.\nThe analytes and internal standards were extracted by solid phase extraction or by dilution. […] Multiple analyses of pooled samples (n=6) verified intra- and inter-assay accuracy with an acceptance criteria of within 15% (CV≤15%) or 20% (CV≤20%) for the LLOQ. PK parameters were analyzed from plasma and urine concentration time data using standard non-compartmental analysis methods with Phoenix WinNonlin™ version 6.3 (Certara, Princeton, N.J. USA). All statistical analyses were performed using SAS software version 9.2 (SAS Institute Inc., Cary, N.C. USA)."}, "[2]": {"assay": "Healthy Japanese subjects, Part 1 (single dose 200, 600, 1200 mg tablets): PK of TAK-935 and M-I", "format": "in vivo, human", "conditions": "plasma; for Vd/F: read-out: Vz/F; for half-life: read-out: t1/2z (terminal disposition phase half-life) (converted); for AUC: read-out: Mean AUC24", "description": "This study consisted of 2 parts, and was a randomized, double-blind, placebo-controlled study to assess safety, tolerability, and PK and PD of TAK-935 when administered orally in healthy Japanese subjects.\nOn Day 1 of each dose level, a single dose of TAK-935 or placebo was administered, and safety, PK and PD were evaluated.\nAfter the screening visit, eligible participants checked—in on Day-2. On Day 1, eligible participants were randomized 6:2 to TAK-935 or placebo in each dose group in double-blinded fashion. No stratification variables were used for randomization. On the same day, study drug was administered by oral administration of single dosing of TAK-935 to each cohort at each dose level. The subjects were discharged on Day 3. Intensive PK samplings were performed from Day 1 to Day 3.\nSubjects received a single dose of TAK-935 or placebo of 200 mg, 600 mg, or 1200 mg with 150 mL of water, after fasting for at least 10 hours and remained fasted until 4 hours after dosing.\nBlood samples for PK analysis of TAK-935 and its metabolites (M-I) were collected into blood collection tubes (vacutainer) containing the anticoagulant K2EDTA (Table 40e and Table 40f).\nThe PK parameters of TAK-935 and its metabolites (M-I) were determined from the concentration-time profiles for all evaluable subjects. Actual sampling times, rather than scheduled sampling times, were used in all computations involving sampling times. The following PK parameters were calculated from plasma concentrations of TAK-935 and its metabolites (M-I), unless otherwise specified: […]"}, "[3]": {"conditions": "both sexes, in vivo, po, 200 mg"}, "[4]": {"conditions": "both sexes, in vivo, po, 600 mg"}, "[5]": {"conditions": "both sexes, in vivo, po, 900 mg"}, "[6]": {"conditions": "both sexes, in vivo, po, 1350 mg"}, "[7]": {"conditions": "TAK-935 200 mg single dose, mean"}, "[8]": {"conditions": "TAK-935 600 mg single dose, mean"}, "[9]": {"conditions": "TAK-935 1200 mg single dose, mean"}, "[10]": {"conditions": "human, oral, TAK-935 200 mg single dose, mean"}, "[11]": {"conditions": "human, oral, TAK-935 600 mg single dose, mean"}, "[12]": {"conditions": "human, oral, TAK-935 1200 mg single dose, mean"}, "[13]": {"conditions": "human, oral, TAK-935, single dose 200 mg"}, "[14]": {"conditions": "human, oral, TAK-935, single dose 600 mg"}, "[15]": {"conditions": "human, oral, TAK-935, single dose 1200 mg"}}, "note": "Like-named read-outs stand apart in the source and are kept apart here.", "data": [{"smiles": "O=C(c1cccnc1-c1ccncc1)N1CCC(O)(Cc2ccccc2)CC1", "note": "[soticlestat]", "values": [{"measurement": "CL renal", "setting": "[1]; both sexes, in vivo", "value": "3.83 to 10.3", "unit": "mL/min"}, {"measurement": "Tmax", "setting": "[1]; both sexes, in vivo, po", "value": "15 to 31.2", "unit": "min"}, {"measurement": "half-life", "setting": "[1]; both sexes, in vivo, po", "value": "49.2 to 430", "unit": "min"}, {"measurement": "Tmax", "setting": "[1]; both sexes, in vivo, po, 15 mg", "value": 15, "unit": "min"}, {"measurement": "Cmax", "setting": "[1]; both sexes, in vivo, po, 15 mg", "value": 43.5, "unit": "ng/mL"}, {"measurement": "AUC(0-inf)", "setting": "[1]; both sexes, in vivo, po, 50 mg", "value": 172, "unit": "ng·h/mL"}, {"measurement": "AUC(0-t)", "setting": "[1]; both sexes, in vivo, po, 50 mg", "value": 169, "unit": "ng·h/mL"}, {"measurement": "Tmax", "setting": "[1]; both sexes, in vivo, po, 50 mg", "value": 15, "unit": "min"}, {"measurement": "Vd/F", "setting": "[1]; both sexes, in vivo, po, 50 mg", "value": 1500, "unit": "L"}, {"measurement": "Cmax", "setting": "[1]; both sexes, in vivo, po, 50 mg", "value": 210, "unit": "ng/mL"}, {"measurement": "AUC(0-inf)", "setting": "[1]; [3]", "value": 621, "unit": "ng·h/mL"}, {"measurement": "AUC(0-t)", "setting": "[1]; [3]", "value": 563, "unit": "ng·h/mL"}, {"measurement": "Tmax", "setting": "[1]; [3]", "value": 15, "unit": "min"}, {"measurement": "Vd/F", "setting": "[1]; [3]", "value": 2240, "unit": "L"}, {"measurement": "Cmax", "setting": "[1]; [3]", "value": 571, "unit": "ng/mL"}, {"measurement": "Tmax", "setting": "[1]; [4]", "value": 31.2, "unit": "min"}, {"measurement": "Vd/F", "setting": "[1]; [4]", "value": 993, "unit": "L"}, {"measurement": "Cmax", "setting": "[1]; [4]", "value": 4550, "unit": "ng/mL"}, {"measurement": "AUC(0-inf)", "setting": "[1]; [5]", "value": 7660, "unit": "ng·h/mL"}, {"measurement": "AUC(0-t)", "setting": "[1]; [5]", "value": 7620, "unit": "ng·h/mL"}, {"measurement": "Vd/F", "setting": "[1]; [5]", "value": 1230, "unit": "L"}, {"measurement": "Cmax", "setting": "[1]; [5]", "value": 5080, "unit": "ng/mL"}, {"measurement": "AUC(0-inf)", "setting": "[1]; [6]", "value": 13500, "unit": "ng·h/mL"}, {"measurement": "AUC(0-t)", "setting": "[1]; [6]", "value": 13500, "unit": "ng·h/mL"}, {"measurement": "Vd/F", "setting": "[1]; [6]", "value": 852, "unit": "L"}, {"measurement": "Cmax", "setting": "[1]; [6]", "value": 7950, "unit": "ng/mL"}, {"measurement": "Vd/F", "setting": "[1]; both sexes, plasma, single oral solution dose 15 mg, read-out: Vz/F, mean", "value": 732, "unit": "L"}, {"measurement": "time of second smaller plasma peak post-dose", "setting": "[1]; both, in vivo", "value": "approximately 10 hours"}, {"measurement": "t1/2z, mean", "setting": "[1]; both, in vivo, po, 15 mg", "value": 49.2, "unit": "min"}, {"measurement": "t1/2z, mean", "setting": "[1]; both, in vivo, po, 50 mg", "value": 179, "unit": "min"}, {"measurement": "t1/2z, mean", "setting": "[1]; both, in vivo, po, 200 mg", "value": 263, "unit": "min"}, {"measurement": "AUC(0-t), mean", "setting": "[1]; both, in vivo, po, 600 mg", "value": 5790, "unit": "ng·h/mL"}, {"measurement": "AUC∞, mean", "setting": "[1]; both, in vivo, po, 600 mg", "value": 5810, "unit": "ng·h/mL"}, {"measurement": "t1/2z, mean", "setting": "[1]; both, in vivo, po, 600 mg", "value": 286, "unit": "min"}, {"measurement": "Tmax, median", "setting": "[1]; both, in vivo, po, 900 mg", "value": 30, "unit": "min"}, {"measurement": "t1/2z, mean", "setting": "[1]; both, in vivo, po, 900 mg", "value": 430, "unit": "min"}, {"measurement": "Cmax, mean", "setting": "[1]; both, in vivo, po, 1350 mg", "value": 7953, "unit": "ng/mL"}, {"measurement": "t1/2z, mean", "setting": "[1]; both, in vivo, po, 1350 mg", "value": 319, "unit": "min"}, {"measurement": "dose-proportionality slope, AUC(0-t) (log-log)", "setting": "[1]; in vivo", "value": "1.38 (1.28, 1.48)"}, {"measurement": "dose-proportionality slope, AUC∞ (log-log)", "setting": "[1]; in vivo", "value": "1.42 (1.31, 1.53)"}, {"measurement": "dose-proportionality slope, Cmax (log-log)", "setting": "[1]; in vivo", "value": "1.22 (1.11, 1.32)"}, {"measurement": "CL/F, mean", "setting": "[1]; in vivo, po, 15 mg", "value": 689, "unit": "L/h"}, {"measurement": "CL/F, mean", "setting": "[1]; in vivo, po, 50 mg", "value": 549, "unit": "L/h"}, {"measurement": "CL/F, mean", "setting": "[1]; in vivo, po, 200 mg", "value": 355, "unit": "L/h"}, {"measurement": "CL/F, mean", "setting": "[1]; in vivo, po, 600 mg", "value": 145, "unit": "L/h"}, {"measurement": "CL/F, mean", "setting": "[1]; in vivo, po, 900 mg", "value": 124, "unit": "L/h"}, {"measurement": "CL/F, mean", "setting": "[1]; in vivo, po, 1350 mg", "value": 112, "unit": "L/h"}, {"measurement": "CL/F", "setting": "[2]; [7]", "value": 470.8, "unit": "L/h"}, {"measurement": "Lambda z", "setting": "[2]; [7]", "value": 0.1608, "unit": "h⁻¹"}, {"measurement": "AUC∞", "setting": "[2]; [8]", "value": 3917, "unit": "ng·h/mL"}, {"measurement": "CL/F", "setting": "[2]; [8]", "value": 178.4, "unit": "L/h"}, {"measurement": "Lambda z", "setting": "[2]; [8]", "value": 0.1634, "unit": "h⁻¹"}, {"measurement": "Tmax", "setting": "[2]; TAK-935 600 mg single dose, median", "value": 30, "unit": "min"}, {"measurement": "CL/F", "setting": "[2]; [9]", "value": 119.8, "unit": "L/h"}, {"measurement": "Lambda z", "setting": "[2]; [9]", "value": 0.1922, "unit": "h⁻¹"}, {"measurement": "AUC(0-inf)", "setting": "[2]; [10]", "value": 720, "unit": "ng·h/mL"}, {"measurement": "AUC(0-t)", "setting": "[2]; [10]", "value": 695, "unit": "ng·h/mL"}, {"measurement": "Vd/F", "setting": "[2]; [10]", "value": 4260, "unit": "L"}, {"measurement": "half-life", "setting": "[2]; [10]", "value": 353, "unit": "min"}, {"measurement": "AUC(0-t)", "setting": "[2]; [11]", "value": 3860, "unit": "ng·h/mL"}, {"measurement": "Vd/F", "setting": "[2]; [11]", "value": 2340, "unit": "L"}, {"measurement": "half-life", "setting": "[2]; [11]", "value": 522, "unit": "min"}, {"measurement": "AUC(0-inf)", "setting": "[2]; [12]", "value": 11400, "unit": "ng·h/mL"}, {"measurement": "AUC(0-t)", "setting": "[2]; [12]", "value": 11400, "unit": "ng·h/mL"}, {"measurement": "Vd/F", "setting": "[2]; [12]", "value": 769, "unit": "L"}, {"measurement": "half-life", "setting": "[2]; [12]", "value": 304, "unit": "min"}, {"measurement": "Tmax", "setting": "[2]; human, oral, 200 mg, TAK-935 200 mg single dose, median, read-out: tmax", "value": 45, "unit": "min"}, {"measurement": "Tmax", "setting": "[2]; human, oral, 1200 mg, TAK-935 1200 mg single dose, median, read-out: tmax", "value": 30, "unit": "min"}, {"measurement": "Tmax", "setting": "[2]; human, oral, 1200 mg, TAK-935, single dose 200, 600, 1200 mg, read-out: Tmax (median), range", "value": "30 to 45", "unit": "min"}, {"measurement": "Cmax", "setting": "[2]; [13]", "value": 850, "unit": "ng/mL"}, {"measurement": "AUC", "setting": "[2]; [13]", "value": 698, "unit": "ng·h/mL"}, {"measurement": "Cmax", "setting": "[2]; [14]", "value": 3280, "unit": "ng/mL"}, {"measurement": "AUC", "setting": "[2]; [14]", "value": 3860, "unit": "ng·h/mL"}, {"measurement": "Cmax", "setting": "[2]; [15]", "value": 10200, "unit": "ng/mL"}, {"measurement": "AUC", "setting": "[2]; [15]", "value": 11300, "unit": "ng·h/mL"}]}]}
